Results as given in ChEMBL document CHEMBL5614402, “Discovery of novel pyrazolo[1,5-a]pyrimidine derivatives as potent reversal agents against ABCB1-mediated multidrug resistance” (Eur J Med Chem, 2024).
pIC50: −log10 of the molar value. Active and inactive are the calls of the source. The rule behind the calls is not given here.

Key:
NCI/ADR-RES [1] = experiment: Reversal of paclitaxel resistance in human MCF7ADR cells assessed as reversal fold by measuring ratio of paclitaxel IC50 to paclitaxel IC50 in presence of test compound at 5 uM incubated for 72 hrs by MTT assay; type: functional
MCF7 [2] = experiment: Reversal of paclitaxel resistance in human MCF7 cells assessed as reduction in paclitaxel IC50 at 5 uM pretreated with compound for 4 hrs followed by paclitaxel addition and measured after 72 hrs by MTT assay (reference value: 2.60 +/- 0.36 nM); type: functional, cell-based
NCI/ADR-RES [3] = experiment: Antiproliferative activity against human MCF7ADR cells assessed as survival rate at 5 uM incubated for 72 hrs by MTT assay; type: functional; conditions: read-out: Survival
NCI/ADR-RES [4] = experiment: Antiproliferative activity against human MCF7ADR cells incubated for 72 hrs by MTT assay; type: functional, cell-based
MCF7 [5] = experiment: Reversal of paclitaxel resistance in human MCF7 cells assessed as reduction in paclitaxel IC50 at 10 uM pretreated with compound for 4 hrs followed by paclitaxel addition and measured after 72 hrs by MTT assay (reference value: 2.60 +/- 0.36 nM); type: functional, cell-based
MCF7 [6] = experiment: Antiproliferative activity against human MCF7 cells incubated for 72 hrs by MTT assay; type: functional, cell-based; conditions: MCF7, 72 h
NCI/ADR-RES [7] = experiment: Reversal of paclitaxel resistance in human MCF7ADR cells assessed as reversal fold by measuring ratio of paclitaxel IC50 to paclitaxel IC50 in presence of test compound at 10 uM incubated for 72 hrs by MTT assay; type: functional
NCI/ADR-RES [8] = experiment: Reversal of paclitaxel resistance in human MCF7ADR cells assessed as reduction in paclitaxel IC50 at 5 uM pretreated with compound for 4 hrs followed by paclitaxel addition and measured after 72 hrs by MTT assay (reference value: 6.68 +/- 0.35 microM); type: functional, cell-based
MCF7 [9] = experiment: Antiproliferative activity against human MCF7 cells assessed as survival rate at 5 uM incubated for 72 hrs by MTT assay; type: functional; conditions: read-out: Survival
NCI/ADR-RES [10] = experiment: Reversal of paclitaxel resistance in human MCF7ADR cells assessed as reduction in paclitaxel IC50 at 10 uM pretreated with compound for 4 hrs followed by paclitaxel addition and measured after 72 hrs by MTT assay (reference value: 6.68 +/- 0.35 microM); type: functional, cell-based
MCF7 [11] = experiment: Reversal of paclitaxel resistance in human MCF7 cells assessed as reversal fold by measuring ratio of paclitaxel IC50 to paclitaxel IC50 in presence of test compound at 5 uM incubated for 72 hrs by MTT assay; type: functional
MCF7 [12] = experiment: Reversal of paclitaxel resistance in human MCF7 cells assessed as reversal fold by measuring ratio of paclitaxel IC50 to paclitaxel IC50 in presence of test compound at 10 uM incubated for 72 hrs by MTT assay; type: functional
Tubulin (Homo sapiens) [13] = target: T1, Tubulin (Homo sapiens) (UniProt P68371+Q9H4B7+P0DPH7+P68366+Q13509+Q71U36+P04350+Q3ZCM7+P07437+P68363+Q9BQE3+Q6PEY2+Q13885+Q9BVA1+Q9BUF5); experiment: Induction of paclitaxel mediated tubulin […] in human MCF7ADR cells assessed as appearance of cellular multinucleation at 10 uM incubated for 72 hrs in presence of paclitaxel; type: cell-based; conditions: filed as activator
NCI/ADR-RES [14] = experiment: Induction of paclitaxel mediated apoptosis in human MCF7ADR cells assessed as necrotic cells at 10 uM in presence of paclitaxel by Annexin V-FITC and propidium iodide staining based flow cytometry analysis (reference value: 3.14%); type: functional
NCI/ADR-RES [15] = experiment: Induction of paclitaxel mediated apoptosis in human MCF7ADR cells assessed as late apoptotic cells at 10 uM in presence of paclitaxel by Annexin V-FITC and propidium iodide staining based flow cytometry analysis (reference value: 7.24%); type: functional
[16] = Cytotoxicity against human GES1 cells assessed as cell viability at 10 uM; type: toxicity, cell-based; conditions: read-out: Activity
NCI/ADR-RES [17] = experiment: Induction of cell cycle arrest in human MCF7ADR cells assessed as accumulation of cells at G2/M phase at 10 uM in presence of paclitaxel by propidium iodide staining based flow cytometry analysis; type: functional
NCI/ADR-RES [18] = experiment: Induction of paclitaxel mediated apoptosis in human MCF7ADR cells assessed as early apoptotic cells at 10 uM in presence of paclitaxel by Annexin V-FITC and propidium iodide staining based flow cytometry analysis (reference value: 3.87%); type: functional
NCI/ADR-RES [19] = experiment: Induction of DNA damage in human MCF7ADR cells at 10 nM by comet assay; type: functional, cell-based
NCI/ADR-RES [20] = experiment: Inhibition of colony formation in human MCF7ADR cells at 10 uM incubated for 7 days in presence of paclitaxel by crystal violet staining based assay; type: functional, cell-based; conditions: time 7.0 day
NCI/ADR-RES [21] = experiment: Induction of paclitaxel mediated DNA damage in human MCF7ADR cells at 10 uM in presence of paclitaxel by comet assay; type: functional, cell-based
NCI/ADR-RES [22] = experiment: Reversal of paclitaxel resistance in human MCF7ADR cells at 10 uM; type: functional, cell-based
NCI/ADR-RES [23] = experiment: Synergistic antiproliferative activity against human MCF7ADR cells assessed as combination index at 10 uM in presence of PTX; type: functional
NCI/ADR-RES [24] = experiment: Induction of apoptosis in human MCF7ADR cells assessed as late apoptotic cells at 10 uM by Annexin V-FITC and propidium iodide staining based flow cytometry analysis (reference value: 7.24%); type: functional
NCI/ADR-RES [25] = experiment: Effect on ABCB1 expression in human MCF7ADR cells upto 15 uM by Western blotting analysis; type: functional, cell-based
NCI/ADR-RES [26] = experiment: Induction of apoptosis in human MCF7ADR cells assessed as viable cells at 10 uM by Annexin V-FITC and propidium iodide staining based flow cytometry analysis (reference value: 85.75%); type: functional; conditions: read-out: Activity
[27] = Cytotoxicity against HUVECs assessed as cell viability at 10 uM; type: toxicity, cell-based; conditions: human, HUVEC cells, read-out: Activity
Tubulin (Homo sapiens) [28] = target: T1, Tubulin (Homo sapiens); experiment: Inhibition of tubulin depolymerization in human MCF7ADR cells assessed as change in microtubule morphology at 10 uM incubated for 72 hrs; type: cell-based
[29] = target: T2, ATP-dependent translocase ABCB1 (Homo sapiens, UniProt P08183); experiment: Binding affinity to ABCB1 (unknown origin) assessed as reduction in protein hydrolysis at 10 to 100 uM incubated for 1 hr followed by alkaline protease addition and measured after 15 mins by Western blotting analysis; conditions: 1.25 h, dose 10-100 µM, time 75 min
T2 sequence (P08183 whole entry): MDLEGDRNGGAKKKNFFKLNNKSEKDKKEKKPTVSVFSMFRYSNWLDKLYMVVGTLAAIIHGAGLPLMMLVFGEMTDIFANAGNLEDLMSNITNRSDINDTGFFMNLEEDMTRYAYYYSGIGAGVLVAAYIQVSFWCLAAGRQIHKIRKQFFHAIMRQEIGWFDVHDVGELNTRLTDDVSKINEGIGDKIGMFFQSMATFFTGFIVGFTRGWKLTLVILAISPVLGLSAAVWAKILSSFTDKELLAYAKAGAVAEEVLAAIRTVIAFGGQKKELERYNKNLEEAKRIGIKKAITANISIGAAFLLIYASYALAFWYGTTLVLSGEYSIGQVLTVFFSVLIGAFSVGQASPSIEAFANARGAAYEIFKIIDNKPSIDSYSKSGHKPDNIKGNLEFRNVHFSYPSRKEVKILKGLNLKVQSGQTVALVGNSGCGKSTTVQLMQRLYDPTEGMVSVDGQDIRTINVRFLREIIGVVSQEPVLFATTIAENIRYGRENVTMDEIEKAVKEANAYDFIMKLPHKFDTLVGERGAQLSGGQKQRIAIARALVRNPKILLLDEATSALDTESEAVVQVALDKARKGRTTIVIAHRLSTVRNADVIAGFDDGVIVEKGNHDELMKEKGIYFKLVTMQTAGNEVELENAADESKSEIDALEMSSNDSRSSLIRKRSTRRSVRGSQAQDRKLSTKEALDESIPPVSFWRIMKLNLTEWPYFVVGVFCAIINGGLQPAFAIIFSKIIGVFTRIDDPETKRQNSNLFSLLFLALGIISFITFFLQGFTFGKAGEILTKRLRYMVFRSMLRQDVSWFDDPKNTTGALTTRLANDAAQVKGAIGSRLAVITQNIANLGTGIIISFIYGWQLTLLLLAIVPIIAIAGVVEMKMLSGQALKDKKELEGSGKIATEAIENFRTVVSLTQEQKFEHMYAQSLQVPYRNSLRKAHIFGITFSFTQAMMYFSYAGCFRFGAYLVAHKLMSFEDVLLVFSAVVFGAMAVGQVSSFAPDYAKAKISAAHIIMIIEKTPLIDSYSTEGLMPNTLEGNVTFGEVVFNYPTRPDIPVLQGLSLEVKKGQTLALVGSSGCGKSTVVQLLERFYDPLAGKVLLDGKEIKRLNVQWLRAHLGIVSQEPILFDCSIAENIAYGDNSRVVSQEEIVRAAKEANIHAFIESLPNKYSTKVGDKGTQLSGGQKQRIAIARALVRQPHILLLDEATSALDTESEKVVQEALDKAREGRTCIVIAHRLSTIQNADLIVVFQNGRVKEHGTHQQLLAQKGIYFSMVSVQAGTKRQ

MCF7 [30] = experiment: Reversal of paclitaxel resistance in human MCF7 cells; type: functional, cell-based
NCI/ADR-RES [31] = experiment: Induction of paclitaxel mediated apoptosis in human MCF7ADR cells assessed as reduction in nuclei size at 10 uM in presence of paclitaxel by DAPI staining based assay; type: functional, cell-based
NCI/ADR-RES [32] = experiment: Effect on subcellular localization of ABCB1 in human MCF7ADR cells at 10 uM incubated for 48 hrs by DAPI staining based assay; type: functional, cell-based
NCI/ADR-RES [33] = experiment: Induction of apoptosis in human MCF7ADR cells assessed as early apoptotic cells at 10 uM by Annexin V-FITC and propidium iodide staining based flow cytometry analysis (reference value: 3.87%); type: functional
NCI/ADR-RES [34] = experiment: Induction of paclitaxel mediated apoptosis in human MCF7ADR cells assessed as viable cells at 10 uM in presence of paclitaxel by Annexin V-FITC and propidium iodide staining based flow cytometry analysis (reference value: 85.75%); type: functional; conditions: read-out: Activity
Tubulin (Homo sapiens) [35] = target: T1, Tubulin (Homo sapiens); experiment: Induction of paclitaxel mediated tubulin […] in human MCF7ADR cells assessed as appearance of filamentous microtubules at 10 uM incubated for 72 hrs in presence of paclitaxel; type: cell-based; conditions: filed as activator
NCI/ADR-RES [36] = experiment: Induction of paclitaxel mediated apoptosis in human MCF7ADR cells assessed as nuclear fragmentation at 10 uM in presence of paclitaxel by DAPI staining based assay; type: functional, cell-based
NCI/ADR-RES [37] = experiment: Induction of apoptosis in human MCF7ADR cells assessed as necrotic cells at 10 uM by Annexin V-FITC and propidium iodide staining based flow cytometry analysis (reference value: 3.14%); type: functional
[38] = target: T2, ATP-dependent translocase ABCB1; experiment: Binding affinity to ABCB1 (unknown origin) assessed as change in thermal stability at 200 uM by CETSA
NCI/ADR-RES [39] = experiment: Inhibition of cell proliferation in human MCF7ADR cells assessed as reduction in cellular proliferation cells at 10 uM in presence of paclitaxel by EdU staining based assay; type: functional
NCI/ADR-RES [40] = experiment: Induction of DNA damage in human MCF7ADR cells at 10 uM by comet assay; type: functional, cell-based
[41] = Cytotoxicity against HEK293T cells assessed as cell viability at 10 uM; type: toxicity, cell-based, HEK-293T; conditions: human, read-out: Activity
NCI/ADR-RES [42] = experiment: Induction of apoptosis in human MCF7ADR cells assessed as early apoptotic cells at 10 nM by Annexin V-FITC and propidium iodide staining based flow cytometry analysis (reference value: 3.87%); type: functional
NCI/ADR-RES [43] = experiment: Induction of apoptosis in human MCF7ADR cells assessed as late apoptotic cells at 10 nM by Annexin V-FITC and propidium iodide staining based flow cytometry analysis (reference value: 7.24%); type: functional
NCI/ADR-RES [44] = experiment: Induction of apoptosis in human MCF7ADR cells assessed as necrotic cells at 10 nM by Annexin V-FITC and propidium iodide staining based flow cytometry analysis (reference value: 3.14%); type: functional
Tubulin (Homo sapiens) [45] = target: T1, Tubulin (Homo sapiens); experiment: Inhibition of tubulin depolymerization in human MCF7ADR cells assessed as change in microtubule morphology at 10 nM incubated for 72 hrs; type: cell-based
NCI/ADR-RES [46] = experiment: Induction of apoptosis in human MCF7ADR cells assessed as viable cells at 10 nM by Annexin V-FITC and propidium iodide staining based flow cytometry analysis (reference value: 85.75%); type: functional; conditions: read-out: Activity

## COc1ccc(CCN(C)CCCC(C#N)(c2ccc(OC)c(OC)c2)C(C)C)cc1OC (stereo not drawn) [VERAPAMIL]
NCI/ADR-RES [1]
  Ratio: 39.29
MCF7 [2]
  pIC50: 8.99
NCI/ADR-RES [3]
  viability at 5 µM: > 99%
NCI/ADR-RES [4]
  pIC50: < 4.70
MCF7 [5]
  pIC50: 8.57
MCF7 [6]
  pIC50: < 4.70
NCI/ADR-RES [7]
  Ratio: 96.11
NCI/ADR-RES [8]
  pIC50: 6.77
MCF7 [9]
  viability at 5 µM: > 99%
NCI/ADR-RES [10]
  pIC50: 7.16
MCF7 [11]
  Ratio: 2.55
MCF7 [12]
  Ratio: 0.97

## COc1cc(-c2c(C)nc3cc(-c4cccs4)nn3c2-c2cc(OC)c(OC)c(OC)c2)cc(OC)c1OC
NCI/ADR-RES [1]
  Ratio: 247.4
MCF7 [2]
  pIC50: 8.53
Tubulin (Homo sapiens) [13]
  Activity: Active
NCI/ADR-RES [14]
  Activity: 4.28%
NCI/ADR-RES [15]
  Activity: 29.54%
[16]
  viability at 10 µM: > 80%
NCI/ADR-RES [17]
  Activity: Active
NCI/ADR-RES [3]
  viability at 5 µM: 95%
NCI/ADR-RES [18]
  Activity: 13.87%
NCI/ADR-RES [4]
  pIC50: < 4.70
NCI/ADR-RES [19]
  Activity: Active
MCF7 [5]
  pIC50: 8.58
MCF7 [6]
  pIC50: < 4.70
NCI/ADR-RES [20]
  inhibition: Active
NCI/ADR-RES [21]
  Activity: Active
NCI/ADR-RES [22]
  Activity: Active
NCI/ADR-RES [23]
  CI: 0.09
NCI/ADR-RES [24]
  Activity: 7.98%
NCI/ADR-RES [7]
  Ratio: 663.44
NCI/ADR-RES [8]
  pIC50: 7.57
NCI/ADR-RES [25]
  Activity: inactive
NCI/ADR-RES [26]
  viability at 10 µM: 84.4%
[27]
  viability at 10 µM: > 80%
MCF7 [9]
  viability at 5 µM: 97.7%
Tubulin (Homo sapiens) [28]
  inhibition: inactive
NCI/ADR-RES [10]
  pIC50: 8.00
MCF7 [11]
  Ratio: 0.88
MCF7 [12]
  Ratio: 0.98
[29]
  Activity: Active
MCF7 [30]
  Activity: inactive
NCI/ADR-RES [31]
  Activity: Active
NCI/ADR-RES [32]
  Activity: inactive
NCI/ADR-RES [33]
  Activity: 6.17%
NCI/ADR-RES [34]
  viability at 10 µM: 52.3%
Tubulin (Homo sapiens) [35]
  Activity: Active
NCI/ADR-RES [36]
  Activity: Active
NCI/ADR-RES [37]
  Activity: 1.44%
[38]
  Activity: Active
NCI/ADR-RES [39]
  inhibition: Active
NCI/ADR-RES [40]
  Activity: Active
[41]
  viability at 10 µM: > 80%

## CC(=O)O[C@H]1C(=O)[C@@]2(C)[C@H]([C@H](OC(=O)c3ccccc3)[C@]3(O)C[C@H](OC(=O)[C@H](O)[C@@H](NC(=O)c4ccccc4)c4ccccc4)C(C)=C1C3(C)C)[C@]1(OC(C)=O)CO[C@@H]1C[C@@H]2O [PACLITAXEL]
NCI/ADR-RES [42]
  Activity: 4.93%
NCI/ADR-RES [43]
  Activity: 6.48%
NCI/ADR-RES [44]
  Activity: 2.4%
Tubulin (Homo sapiens) [45]
  inhibition: inactive
NCI/ADR-RES [46]
  viability at 0.01 µM: 86.2%
